Values quoted from earlier work in PMC9088800, “Expanded LUXendin Color Palette for GLP1R Detection and Visualization In Vitro and In Vivo” (JACS Au, 2022).

Conditions: phase III trials, combined with lifestyle interventions
From the text: The glucagon-like peptide-1 receptor (GLP1R) is a class B G protein-coupled receptor involved in the regulation of glucose homeostasis, food intake, and inflammation.[1],[2] As such, GLP1R agonist (GLP1RA) therapy has become a mainstay of type-2 diabetes treatment during the past decade, with a number of drugs on the market based upon stabilized analogues of glucagon-like peptide-1.[3] Most recently, phase III trials of the third-generation semaglutide have shown a ∼15% reduction in body weight when combined with lifestyle interventions,[4] leading to the approval of GLP1RAs as the first nonsu ...

Substance: semaglutide
- Reduction in body weight: ~15%
